Laboratory results reported in patent US4594329A, “CRF analogs” (The Salk Institute for Biological Studies, priority 1984, dated 1986).
Square brackets hold non-standard residues; d marks the D form. Peptide text beside a SMILES is read from it. Nle = CCCC[C@H](N)C(=O)O; Orn = NCCC[C@H](N)C(=O)O

Experiments:
[1] = lowering of blood pressure, in vivo testing; conditions: general procedure of Example III
Description: (§1) The synthetic peptide AHC and oCRF were examined for their effects on the secretion of ACTH and β-endorphin in vitro and was also in vivo. The potency of synthetic oCRF to stimulate the secretion of ACTH and β-endorphin by cultured rat pituitary cells was measured using the procedure as generally set forth in Endocrinology, 91, 562 (1972). […] In vivo testing is carried out using the general procedure set forth in C. Rivier et al., Science, 218, 377 (1982).

[2] = tested on: cultured rat pituitary cells; assay: secretion of ACTH and β-endorphin by cultured rat pituitary cells; type: cell-based
Description: as §1

[3] = general procedure of Example III

Compound	lowering of blood pressure [1]	secretion of ACTH and β-END-LI compared with oCRF ([2]; comparison with oCRF)	secretion of ACTH and β-END-LI, amount relative to oCRF ([2]; % of oCRF, general procedure of Example III)	stimulates the secretion of ACTH and β-END-LI [2, 3]
CCCC[C@H](NC(=O)[C@H](CCC(=O)O)NC(=O)[C@H](CC(C)C)NC(=O)[C@@H](NC(=O)[C@H](CCC(=O)O)NC(=O)[C@H](CCCNC(=N)N)NC(=O)[C@H](CC(C)C)NC(=O)[C@H](CC(C)C)NC(=O)[C@H](Cc1c[nH]cn1)NC(=O)[C@H](Cc1ccccc1)NC(=O)[C@@H](NC(=O)[C@H](CC(C)C)NC(=O)[C@H](CC(=O)O)NC(=O)[C@H](CC(C)C)NC(=O)[C@H](CO)NC(=O)[C@@H](NC(=O)[C@@H]1CCCN1C(=O)[C@H]1CCCN1)[C@@H](C)CC)[C@@H](C)O)C(C)C)C(=O)N[C@@H](C)C(=O)N[C@@H](CCCNC(=N)N)C(=O)N[C@@H](C)C(=O)N[C@@H](CCC(=O)O)C(=O)N[C@@H](CCC(N)=O)C(=O)N[C@@H](CC(C)C)C(=O)N[C@@H](C)C(=O)N[C@@H](CCC(N)=O)C(=O)N[C@@H](CCC(N)=O)C(=O)N[C@@H](C)C(=O)N[C@@H](Cc1c[nH]cn1)C(=O)N[C@@H](CO)C(=O)N[C@@H](CC(N)=O)C(=O)N[C@@H](CCCNC(=N)N)C(=O)N[C@@H](CCCCN)C(=O)N[C@@H](CC(C)C)C(=O)N[C@@H](CCSC)C(=O)N[C@@H](CCC(=O)O)C(=O)N[C@H](C(=O)N[C@H](C(N)=O)[C@@H](C)CC)[C@@H](C)CC [[D-Pro^4,Nle^21,38]-rCRF(4-41)] (H-[dP]PISLDLTFHLLREVLE[Nle]ARAEQLAQQAHSNRKLMEII-NH2)	very significant lowering of blood pressure	in an amount greater than oCRF		
CCCC[C@H](NC(=O)[C@H](CCC(=O)O)NC(=O)[C@H](CC(C)C)NC(=O)[C@H](CCCC)NC(=O)[C@H](CCC(=O)O)NC(=O)[C@H](CCCNC(=N)N)NC(=O)[C@H](CC(C)C)NC(=O)[C@H](CC(C)C)NC(=O)[C@H](Cc1c[nH]cn1)NC(=O)[C@H](Cc1ccccc1)NC(=O)[C@@H](NC(=O)[C@H](CC(C)C)NC(=O)[C@H](CC(=O)O)NC(=O)[C@H](CC(C)C)NC(=O)[C@H](CO)NC(=O)[C@@H](NC(=O)[C@@H]1CCCN1C(=O)[C@H]1CCCN1C(=O)[C@H](N)Cc1ccc(O)cc1)[C@@H](C)CC)[C@@H](C)O)C(=O)N[C@@H](C)C(=O)N[C@@H](CCCCN)C(=O)N[C@@H](C)C(=O)N[C@@H](CCC(=O)O)C(=O)N[C@@H](CCC(N)=O)C(=O)N[C@@H](CCC(=O)O)C(=O)N[C@@H](C)C(=O)N[C@@H](CCC(=O)O)C(=O)N[C@@H](CCC(N)=O)C(=O)N[C@@H](C)C(=O)N[C@@H](C)C(=O)N[C@@H](CC(C)C)C(=O)N[C@@H](CC(N)=O)C(=O)N[C@@H](CCCNC(=N)N)C(=O)N[C@@H](CC(C)C)C(=O)N[C@@H](CC(C)C)C(=O)N[C@@H](CC(C)C)C(=O)N[C@@H](CCC(=O)O)C(=O)N[C@@H](CCC(=O)O)C(=O)N[C@@H](C)C(N)=O [[D-Tyr^3, D-Pro^4, Nle^18,21]-AHC(3-41)] (H-[dY][dP]PISLDLTFHLLRE[Nle]LE[Nle]AKAEQEAEQAALNRLLLEEA-NH2)	very significant lowering of blood pressure		about 470%	
CCCC[C@H](NC(=O)[C@H](CCC(=O)O)NC(=O)[C@H](CC(C)C)NC(=O)[C@H](CCCC)NC(=O)[C@H](CCC(=O)O)NC(=O)[C@H](CCCNC(=N)N)NC(=O)[C@H](CC(C)C)NC(=O)[C@H](CC(C)C)NC(=O)[C@H](Cc1c[nH]cn1)NC(=O)[C@H](Cc1ccccc1)NC(=O)[C@@H](NC(=O)[C@H](CC(C)C)NC(=O)[C@H](CC(=O)O)NC(=O)[C@H](CC(C)C)NC(=O)[C@H](CO)NC(=O)[C@@H](NC(=O)[C@@H]1CCCN1C(=O)[C@@H]1CCCN1C(=O)[C@H](N)Cc1ccc(O)cc1)[C@@H](C)CC)[C@@H](C)O)C(=O)N[C@@H](C)C(=O)N[C@@H](CCCCN)C(=O)N[C@@H](C)C(=O)N[C@@H](CCC(=O)O)C(=O)N[C@@H](CCC(N)=O)C(=O)N[C@@H](CCC(=O)O)C(=O)N[C@@H](C)C(=O)N[C@@H](CCC(=O)O)C(=O)N[C@@H](CCC(N)=O)C(=O)N[C@@H](C)C(=O)N[C@@H](C)C(=O)N[C@@H](CC(C)C)C(=O)N[C@@H](CC(N)=O)C(=O)N[C@@H](CCCNC(=N)N)C(=O)N[C@@H](CC(C)C)C(=O)N[C@@H](CC(C)C)C(=O)N[C@@H](CC(C)C)C(=O)N[C@@H](CCC(=O)O)C(=O)N[C@@H](CCC(=O)O)C(=O)N[C@@H](C)C(N)=O [[D-Tyr^3, Nle^18,21]-AHC(3-41)] (H-[dY]PPISLDLTFHLLRE[Nle]LE[Nle]AKAEQEAEQAALNRLLLEEA-NH2)	very significant lowering of blood pressure			stimulates the secretion of ACTH and β-END-LI
CC[C@H](C)[C@H](NC(=O)[C@@H](NC(=O)[C@H](CCC(=O)O)NC(=O)[C@H](CC(C)C)NC(=O)[C@H](CC(C)C)NC(=O)[C@H](CCCCN)NC(=O)[C@H](CCCNC(=N)N)NC(=O)[C@H](CC(N)=O)NC(=O)[C@H](CO)NC(=O)[C@H](Cc1c[nH]cn1)NC(=O)[C@H](C)NC(=O)[C@H](CCC(N)=O)NC(=O)[C@H](CCC(=O)O)NC(=O)[C@H](C)NC(=O)[C@H](CC(C)C)NC(=O)[C@H](CCC(N)=O)NC(=O)[C@H](CCC(=O)O)NC(=O)[C@H](CCCN)NC(=O)[C@H](C)NC(=O)[C@H](CCSC)NC(=O)[C@H](CCC(=O)O)NC(=O)[C@H](CC(C)C)NC(=O)[C@@H](NC(=O)[C@H](CCC(=O)O)NC(=O)[C@H](CCCNC(=N)N)NC(=O)[C@H](CC(C)C)NC(=O)[C@H](CC(C)C)NC(=O)[C@H](Cc1c[nH]cn1)NC(=O)[C@H](Cc1ccccc1)NC(=O)[C@@H](NC(=O)[C@H](CC(C)C)NC(=O)[C@H](CC(=O)O)NC(=O)[C@H](CC(C)C)NC(=O)[C@H](CO)NC(=O)[C@@H](NC(=O)[C@@H]1CCCN1C(=O)[C@@H]1CCCN1C(=O)[C@H](CCC(=O)O)NC(=O)[C@H](CCC(N)=O)NC(=O)[C@@H](N)CO)[C@@H](C)CC)[C@@H](C)O)C(C)C)[C@@H](C)CC)C(N)=O [[Gln^2, Orn^23, Glu^29, Leu^38]-rCRF] (H-SQEPPISLDLTFHLLREVLEMA[Orn]EQLAEQAHSNRKLLEII-NH2)	very significant lowering of blood pressure			stimulates the secretion of ACTH and β-END-LI
CCCC[C@H](NC(=O)[C@H](CCC(=O)O)NC(=O)[C@H](CC(C)C)NC(=O)[C@H](CCCC)NC(=O)[C@H](CCC(=O)O)NC(=O)[C@H](CCCNC(=N)N)NC(=O)[C@H](CC(C)C)NC(=O)[C@H](CC(C)C)NC(=O)[C@H](Cc1c[nH]cn1)NC(=O)[C@H](Cc1ccccc1)NC(=O)[C@@H](NC(=O)[C@H](CC(C)C)NC(=O)[C@H](CC(=O)O)NC(=O)[C@H](CC(C)C)NC(=O)[C@H](CO)NC(=O)[C@@H](NC(=O)[C@@H]1CCCN1)[C@@H](C)CC)[C@@H](C)O)C(=O)N[C@@H](C)C(=O)N[C@@H](CCCNC(=N)N)C(=O)N[C@@H](C)C(=O)N[C@@H](CCC(=O)O)C(=O)N[C@@H](CCC(N)=O)C(=O)N[C@@H](CCC(=O)O)C(=O)N[C@@H](C)C(=O)N[C@@H](CCC(=O)O)C(=O)N[C@@H](CCC(N)=O)C(=O)N[C@@H](C)C(=O)N[C@@H](C)C(=O)N[C@@H](CC(C)C)C(=O)N[C@@H](CC(N)=O)C(=O)N[C@@H](CCCNC(=N)N)C(=O)N[C@@H](CC(C)C)C(=O)N[C@@H](CC(C)C)C(=O)N[C@@H](CC(C)C)C(=O)N[C@@H](CCC(=O)O)C(=O)N[C@@H](CCC(=O)O)C(=O)N[C@@H](C)C(N)=O [[Nle^18,21,Arg^23]-AHC(5-41)] (H-PISLDLTFHLLRE[Nle]LE[Nle]ARAEQEAEQAALNRLLLEEA-NH2)	very significant lowering of blood pressure			stimulates the secretion of ACTH and β-END-LI
